The structures appear in SMILES notation.

`COc1ccccc1-n1c(=O)[nH]c2c(C(N)=O)nc(Nc3ccccc3CO)nc21` [Compound 124, 2-(2-(Hydroxymethyl)phenylamino)-9-(2-methoxyphenyl)-8-oxo-8,9-dihydro-7H-purine-6-carboxamide] registered a melting point of 159 to 162 °C.

`NC(=O)c1nc(-c2cccc(O)c2)nc2c1[nH]c(=O)n2C1CCc2ccccc21` (stereo not shown) [Compound 141, 9-(2,3-Dihydro-1H-inden-1-yl)-2-(3-hydroxyphenyl)-8-oxo-8,9-dihydro-7H-purine-6-carboxamide] showed a melting point of 341 to 343 °C.

Regarding `CC(C)c1ccccc1-n1c(=O)[nH]c2c(C(N)=O)nc(-c3cnc4nc[nH]c4c3)nc21` [Compound 135, 2-(1H-Imidazo[4,5-b]pyridin-6-yl)-9-(2-isopropylphenyl)-8-oxo-8,9-dihydro-7H-purine-6-carboxamide], the melting point is 320 °C (dec.).

`NC(=O)c1nc(-c2cccc(O)c2)nc2c1[nH]c(=O)n2-c1ccccc1Oc1ccccc1` [Compound 126, 2-(3-Hydroxyphenyl)-8-oxo-9-(2-phenoxyphenyl)-8,9-dihydro-7H-purine-6-carboxamide] gave a melting point of 329 to 331 °C.

Take `CC(C)Cc1ccccc1-n1c(=O)[nH]c2c(C(N)=O)nc(-c3cccc(O)c3)nc21` [Compound 161, 2-(3-Hydroxyphenyl)-9-(2-isobutylphenyl)-8-oxo-8,9-dihydro-7H-purine-6-carboxamide]: the melting point was greater than 260 °C.

In the case of `NC(=O)c1nc(-c2cccc(O)c2)nc2c1[nH]c(=O)n2-c1cccc2c1CCCC2` [Compound 145, 2-(3-Hydroxyphenyl)-8-oxo-9-(5,6,7,8-tetrahydronaphthalen-1-yl)-8,9-dihydro-7H-purine-6-carboxamide], the melting point was greater than 250 °C.

The molecule `COc1ccccc1-n1c(=O)[nH]c2c(C(N)=O)nc(-n3cnc4ccccc43)nc21` [Compound 134, 2-(1H-Benzo[d]imidazol-1-yl)-9-(2-methoxyphenyl)-8-oxo-8,9-dihydro-7H-purine-6-carboxamide] returned a melting point of 318 to 319 °C.

As to `CO[C@H]1CC[C@@H](n2c(=O)[nH]c3c(C(N)=O)nc(-c4cnc5nc[nH]c5c4)nc32)CC1` [Compound 168, 2-(1H-Imidazo[4,5-b]pyridin-6-yl)-9-(cis-4-methoxycyclohexyl)-8-oxo-8,9-dihydro-7H-purine-6-carboxamide], the melting point was 360 °C (dec.).

In the case of `COc1ccccc1-n1c(=O)[nH]c2c(C(N)=O)nc(-c3cccc(C#N)c3)nc21` [Compound 55, 2-(3-Cyanophenyl)-9-(2-methoxyphenyl)-8-oxo-8,9-dihydro-7H-purine-6-carboxamide], the melting point lay within 316 to 318 °C.

With `COc1ccccc1-n1c(=O)[nH]c2c(C(N)=O)nc(-c3ccncc3)nc21` [Compound 75, 9-(2-Methoxyphenyl)-8-oxo-2-(pyridin-4-yl)-8,9-dihydro-7H-purine-6-carboxamide], the melting point lay in the range of 318 to 320 °C.

The molecule `NC(=O)c1nc(-c2cccc(O)c2)nc2c1[nH]c(=O)n2-c1ccccc1C1CCCC1` [Compound 153, 9-(2-Cyclopentylphenyl)-2-(3-hydroxyphenyl)-8-oxo-8,9-dihydro-7H-purine-6-carboxamide] came in with a melting point greater than 260 °C.

With `COc1ccccc1-n1c(=O)[nH]c2c(C(N)=O)nc(-c3cccc4[nH]ncc34)nc21` [Compound 128, 2-(1H-Indazol-4-yl)-9-(2-methoxyphenyl)-8-oxo-8,9-dihydro-7H-purine-6-carboxamide], the melting point was found to be 280 °C.

In turn, `NC(=O)c1nc(-c2cccc(O)c2)nc2c1[nH]c(=O)n2-c1ccccc1C(F)(F)F` [Compound 58, 2-(3-Hydroxyphenyl)-8-oxo-9-(2-(trifluoromethyl)phenyl)-8,9-dihydro-7H-purine-6-carboxamide] gave a melting point of 363 to 365 °C.

Consider `COc1cccc(-n2c(=O)[nH]c3c(C(N)=O)nc(-c4cccc(O)c4)nc32)c1F` [Compound 148, 9-(2-Fluoro-3-methoxyphenyl)-2-(3-hydroxyphenyl)-8-oxo-8,9-dihydro-7H-purine-6-carboxamide], for which the melting point is greater than 260 °C.

In the case of `NC(=O)c1nc(-c2cnccc2Cl)nc2c1[nH]c(=O)n2-c1ccccc1C(F)(F)F` [Compound 109, 2-(4-Chloropyridin-3-yl)-8-oxo-9-(2-(trifluoromethyl)phenyl)-8,9-dihydro-7H-purine-6-carboxamide], the melting point was 244 to 248 °C (dec.).

On to `CC(C)c1ccccc1-n1c(=O)[nH]c2c(C(N)=O)nc(-c3ccc(-c4ncc[nH]4)cc3)nc21` [Compound 133, 2-(4-(1H-Imidazol-2-yl)phenyl)-9-(2-isopropylphenyl)-8-oxo-8,9-dihydro-7H-purine-6-carboxamide], for which the melting point is 340 °C (dec.).

Regarding `CC(C)c1ccccc1-n1c(=O)[nH]c2c(C(N)=O)nc(-c3cnc4[nH]ccc4c3)nc21` [Compound 136, 9-(2-Isopropylphenyl)-8-oxo-2-(1H-pyrrolo[2,3-b]pyridin-5-yl)-8,9-dihydro-7H-purine-6-carboxamide], the melting point was 380 °C (dec.).

`COc1ccccc1-n1c(=O)[nH]c2c(C(N)=O)nc(-c3ccc(C(N)=O)cc3)nc21` [Compound 65, 2-(4-Carbamoylphenyl)-9-(2-methoxyphenyl)-8-oxo-8,9-dihydro-7H-purine-6-carboxamide]: the melting point is greater than 350 °C.

On to `CO[C@H]1CC[C@@H](n2c(=O)[nH]c3c(C(N)=O)nc(-c4ccc5nc[nH]c5c4)nc32)CC1` [Compound 167, 2-(1H-Benzo[d]imidazol-6-yl)-9-(cis-4-methoxycyclohexyl)-8-oxo-8,9-dihydro-7H-purine-6-carboxamide], for which the melting point was 345 °C (dec.).

As to `COC(=O)c1cccc(-c2nc(C(N)=O)c3[nH]c(=O)n(-c4ccccc4OC)c3n2)c1` [Compound 61, Methyl 3-(6-carbamoyl-9-(2-methoxyphenyl)-8-oxo-8,9-dihydro-7H-purin-2-yl)benzoate], the melting point was in the range of 265 to 266 °C.

On to `COc1ccccc1-n1c(=O)[nH]c2c(C(N)=O)nc(N[C@@H]3CCNC3)nc21` [Compound 105, (R)-9-(2-Methoxyphenyl)-8-oxo-2-(pyrrolidin-3-ylamino)-8,9-dihydro-7H-purine-6-carboxamide], for which the melting point was greater than 400 °C.

In turn, `COc1ccccc1-n1c(=O)[nH]c2c(C(N)=O)nc(Nc3cccc(CO)c3)nc21` [Compound 123, 2-(3-(Hydroxymethyl)phenylamino)-9-(2-methoxyphenyl)-8-oxo-8,9-dihydro-7H-purine-6-carboxamide] had a melting point of 237 to 239 °C.

On to `CC(C)c1ccccc1-n1c(=O)[nH]c2c(C(N)=O)nc(-c3ccc4nc[nH]c4c3)nc21` [Compound 127, 2-(1H-Benzo[d]imidazol-6-yl)-9-(2-isopropylphenyl)-8-oxo-8,9-dihydro-7H-purine-6-carboxamide], for which the melting point is 275 °C (dec.).

`COc1ccccc1-n1c(=O)[nH]c2c(C(N)=O)nc(N[C@H]3CC[C@@H](O)CC3)nc21` [Compound 110, 2-(cis-4-Hydroxycyclohexylamino)-9-(2-methoxyphenyl)-8-oxo-8,9-dihydro-7H-purine-6-carboxamide] displayed a melting point of 295 to 297 °C.

For `COc1ccccc1-n1c(=O)[nH]c2c(C(N)=O)nc(Nc3ccc(O)cc3)nc21` [Compound 46, 2-(4-Hydroxyphenylamino)-9-(2-methoxyphenyl)-8-oxo-8,9-dihydro-7H-purine-6-carboxamide], the melting point was in the range of 223 to 224 °C.

The molecule `NC(=O)c1nc(-c2cccc(O)c2)nc2c1[nH]c(=O)n2-c1cccc2[nH]ccc12` [Compound 147, 2-(3-Hydroxyphenyl)-9-(1H-indol-4-yl)-8-oxo-8,9-dihydro-7H-purine-6-carboxamide] gave a melting point greater than 260 °C.

For the molecule `NC(=O)c1nc(-c2cccc(O)c2)nc2c1[nH]c(=O)n2-c1ccccc1-c1ccccc1` [Compound 119, 9-(Biphenyl-2-yl)-2-(3-hydroxyphenyl)-8-oxo-8,9-dihydro-7H-purine-6-carboxamide], the melting point was 293 to 296 °C.

For `NC(=O)c1nc(-c2cccnc2O)nc2c1[nH]c(=O)n2-c1ccccc1C(F)(F)F` [Compound 129, 2-(2-Hydroxypyridin-3-yl)-8-oxo-9-(2-(trifluoromethyl)phenyl)-8,9-dihydro-7H-purine-6-carboxamide], the melting point fell in the range of 331 to 335 °C.

Molecule `CO[C@H]1CC[C@@H](n2c(=O)[nH]c3c(C(N)=O)nc(-c4cccc(O)c4)nc32)CC1` [Compound 144, 9-(cis-4-Methoxycyclohexyl)-2-(3-hydroxyphenyl)-8-oxo-8,9-dihydro-7H-purine-6-carboxamide] registered a melting point of 345 to 347 °C.

Molecule `COc1ccc(-n2c(=O)[nH]c3c(C(N)=O)nc(-c4cccc(O)c4)nc32)c(F)c1` [Compound 155, 9-(2-Fluoro-4-methoxyphenyl)-2-(3-hydroxyphenyl)-8-oxo-8,9-dihydro-7H-purine-6-carboxamide] showed a melting point greater than 260 °C.

Turning to `NC(=O)c1nc(-c2cncc(Cl)c2)nc2c1[nH]c(=O)n2-c1ccccc1C(F)(F)F` [Compound 103, 2-(5-Chloropyridin-3-yl)-8-oxo-9-(2-(trifluoromethyl)phenyl)-8,9-dihydro-7H-purine-6-carboxamide], the melting point fell in the range of 230 to 232 °C.

Molecule `NC(=O)c1nc(-c2cccc(O)c2)nc2c1[nH]c(=O)n2C1CCOCC1` [Compound 151, 2-(3-Hydroxyphenyl)-8-oxo-9-(tetrahydro-2H-pyran-4-yl)-8,9-dihydro-7H-purine-6-carboxamide] gave a melting point of 361 to 363 °C.

`COc1ccccc1-n1c(=O)[nH]c2c(C(N)=O)nc(Nc3ccc(Cn4ccnc4)cc3)nc21` [Compound 111, 2-(4-((1H-Imidazol-1-yl)methyl)phenylamino)-9-(2-methoxyphenyl)-8-oxo-8,9-dihydro-7H-purine-6-carboxamide] showed a melting point of 165 to 170 °C.

Molecule `COc1ccccc1-n1c(=O)[nH]c2c(C(N)=O)nc(-c3cccc(C(N)=O)c3)nc21` [Compound 68, 2-(3-Carbamoylphenyl)-9-(2-methoxyphenyl)-8-oxo-8,9-dihydro-7H-purine-6-carbox amide] displayed a melting point of 338 to 339 °C.

In general, melting point refers to the temperature, or range, at which the solid turns liquid.

Source of the values: patent US7968556B2, “Heteroaryl compounds, compositions thereof, and methods of treatment therewith” (Signal Pharmaceuticals, LLC, priority 2006, dated 2011).
